For the assay, the target named is T1, CFTR in F508del/MF-HBE cells (Homo sapiens, UniProt P13569, DEL508-508).
T1 construct: human bronchial epithelial (HBE) cells derived from CF subjects heterozygous for F508del and a minimal function CFTR mutation; endogenous in cells; host or cells: primary human bronchial epithelial cells from CF subjects (F508del/MF-HBE)
T1 sequence (P13569 with tags, fused parts or gaps DEL508-508): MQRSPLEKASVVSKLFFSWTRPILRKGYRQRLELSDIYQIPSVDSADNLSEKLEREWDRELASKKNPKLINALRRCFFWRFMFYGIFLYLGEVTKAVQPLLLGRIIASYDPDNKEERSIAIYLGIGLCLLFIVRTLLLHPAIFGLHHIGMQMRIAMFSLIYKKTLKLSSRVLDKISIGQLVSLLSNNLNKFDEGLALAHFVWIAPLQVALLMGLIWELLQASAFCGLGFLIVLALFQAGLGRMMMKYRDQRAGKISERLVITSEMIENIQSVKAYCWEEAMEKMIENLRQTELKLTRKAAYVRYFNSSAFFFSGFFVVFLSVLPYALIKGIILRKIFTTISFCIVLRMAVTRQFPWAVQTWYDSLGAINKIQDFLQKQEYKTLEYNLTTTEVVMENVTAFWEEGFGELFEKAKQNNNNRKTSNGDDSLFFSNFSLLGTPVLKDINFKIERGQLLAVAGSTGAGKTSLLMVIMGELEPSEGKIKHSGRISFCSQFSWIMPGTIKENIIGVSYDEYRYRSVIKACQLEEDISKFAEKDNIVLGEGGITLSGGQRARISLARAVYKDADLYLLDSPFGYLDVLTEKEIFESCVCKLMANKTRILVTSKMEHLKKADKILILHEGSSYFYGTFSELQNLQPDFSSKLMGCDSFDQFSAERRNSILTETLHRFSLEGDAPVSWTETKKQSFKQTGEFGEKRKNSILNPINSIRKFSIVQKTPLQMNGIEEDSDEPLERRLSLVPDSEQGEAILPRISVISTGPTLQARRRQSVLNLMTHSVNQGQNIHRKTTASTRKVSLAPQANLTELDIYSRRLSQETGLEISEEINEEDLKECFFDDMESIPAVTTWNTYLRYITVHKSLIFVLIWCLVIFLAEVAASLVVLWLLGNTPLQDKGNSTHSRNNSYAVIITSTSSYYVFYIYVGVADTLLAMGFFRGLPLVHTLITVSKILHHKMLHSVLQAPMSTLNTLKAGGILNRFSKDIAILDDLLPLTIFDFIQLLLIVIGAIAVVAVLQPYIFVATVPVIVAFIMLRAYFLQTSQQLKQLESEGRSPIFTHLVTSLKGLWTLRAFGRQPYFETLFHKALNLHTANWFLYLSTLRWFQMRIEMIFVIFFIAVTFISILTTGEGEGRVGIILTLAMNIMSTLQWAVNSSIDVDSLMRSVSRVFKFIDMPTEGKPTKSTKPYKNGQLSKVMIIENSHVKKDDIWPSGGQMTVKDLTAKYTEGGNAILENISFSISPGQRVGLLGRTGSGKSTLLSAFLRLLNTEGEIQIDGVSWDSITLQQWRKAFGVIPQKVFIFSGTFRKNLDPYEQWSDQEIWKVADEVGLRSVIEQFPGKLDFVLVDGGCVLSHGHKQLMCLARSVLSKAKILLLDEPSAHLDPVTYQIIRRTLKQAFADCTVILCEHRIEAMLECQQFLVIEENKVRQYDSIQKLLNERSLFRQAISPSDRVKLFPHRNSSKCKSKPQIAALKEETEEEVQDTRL
The assay can be described thus: Ussing chamber assay of CFTR-mediated short-circuit currents (identification of potentiator compounds). The assay is classed as cell-based. Particulars: potentiator incubated 18-24 hours at 37° C. in combination with 10 μM corrector, in the presence of 20% human serum, CFTR-mediated ISC. As for the experimental part:
Ussing chamber experiments were performed using human bronchial epithelial (HBE) cells derived from CF subjects heterozygous for F508del and a minimal function CFTR mutation (F508del/MF-HBE) and cultured as previously described (Neuberger T, Burton B, Clark H, Van Goor F; Methods Mol. Biol. 2011:741:39-54). After four days the apical media was removed, and the cells were grown at an air liquid interface for >14 days prior to use.
To isolate the CFTR-mediated short-circuit (ISC) current, F508del/MF-HBE grown on Costar® Snapwell™ cell culture inserts were mounted in an Ussing chamber and the transepithelial ISC was measured under voltage-clamp recording conditions (Vhold=0 mV) at 37° C. The basolateral solution contained (in mM) 145 NaCl, 0.83 K2HPO4, 3.3 KH2PO4, 1.2 MgCl2, 1.2 CaCl2), 10 Glucose, 10 HEPES (pH adjusted to 7.4 with NaOH) and the apical solution contained (in mM) 145 NaGluconate, 1.2 MgCl2, 1.2 CaCl2), 10 glucose, 10 HEPES (pH adjusted to 7.4 with NaOH) and 30 μM amiloride to block the epithelial sodium channel. Forskolin (20 μM) was added to the apical surface to activate CFTR, followed by apical addition of a CFTR inhibitor cocktail consisting of BPO, GlyH-101 and CFTR inhibitor 172 (each at 20 μM final assay concentration) to specifically isolate CFTR currents. The CFTR-mediated ISC (μA/cm^2) for each condition was determined from the peak forskolin response to the steady-state current following inhibition.
The activity of the CFTR potentiator compounds on the CFTR-mediated ISC was determined in Ussing chamber studies as described above. The F508del/MF-HBE cell cultures were incubated with the potentiator compounds at a range of concentrations in combination with 10 μM (14S)-8-[3-(2-{dispiro[2.0.2.1]heptan-7-yl}ethoxy)-1H-pyrazol-1-yl]-12,12-dimethyl-2λ^6-thia-3,9,11,18,23-pentaazatetracyclo[17.3.1.111,14.05,10]tetracosa-1(22),5,7,9,19(23),20-hexaene-2,2,4-trione for 18-24 hours at 37° C. and in the presence of 20% human serum. The concentration of potentiator compounds and (14S)-8-[3-(2-{dispiro[2.0.2.1]heptan-7-yl}ethoxy)-1H-pyrazol-1-yl]-12,12-dimethyl-2λ^6-thia-3,9,11,18,23-pentaazatetracyclo[17.3.1.111,14.05,10]tetracosa-1(22),5,7,9,19(23),20-hexaene-2,2,4-trione used during the 18-24 hours incubations was kept constant throughout the Ussing chamber measurement of the CFTR-mediated ISC to ensure compounds were present throughout the entire experiment. The efficacy and potency of the putative F508del potentiators was compared to that of the known potentiator, ivacaftor (N-[2,4-bis(1,1-dimethylethyl)-5-hydroxyphenyl]-1,4-dihydro-4-oxoquinoline-3-carboxamide).
Regarding `CC1CCCCCCC(O)(C(F)(F)F)C2=NN=C(O2)c2nc1c(C(F)(F)F)cc2N` (single isomer, unassigned) [Compound 19, 17-amino-13-methyl-6,15-bis(trifluoromethyl)-19-oxa-3,4,18-triazatricyclo[12.3.1.12,5]nonadeca-1(18),2,4,14,16-pentaen-6-ol], the EC50 – broadly, the concentration needed to bring the measured effect to its halfway point – is less than 500 nM.

`CC(=O)N1CCCCCC(O)(C(F)(F)F)C2=NN=C(O2)c2nc(c(C(F)(F)F)cc2N)C1` (single isomer, unassigned) [Compound 20, 1-[17-amino-6-hydroxy-6,15-bis(trifluoromethyl)-19-oxa-3,4,12,18-tetrazatricyclo[12.3.1.12,5]nonadeca-1(18),2,4,14,16-pentaen-12-yl]ethanone]: the concentration giving a half-maximal response (EC50) is less than 500 nM.

For `CC(=O)N1CCCCCC(O)(C(F)(F)F)C2=NN=C(O2)c2nc(c(C(F)(F)F)cc2N)C1` (single isomer, unassigned) [Compound 21, 1-[17-amino-6-hydroxy-6,15-bis(trifluoromethyl)-19-oxa-3,4,12,18-tetrazatricyclo[12.3.1.12,5]nonadeca-1(18),2,4,14,16-pentaen-12-yl]ethanone], the EC50 was greater than 1000 nM.

In the case of `Nc1cc(C(F)(F)F)c2nc1-c1nnc(o1)C(O)(C(F)(F)F)CCCCCN(C(=O)C1CCC1)C2` (single isomer, unassigned) [Compound 22, [17-amino-6-hydroxy-6,15-bis(trifluoromethyl)-19-oxa-3,4,12,18-tetrazatricyclo[12.3.1.12,5]nonadeca-1(18),2,4,14,16-pentaen-12-yl]-cyclobutyl-methanone], the EC50 was less than 500 nM.

For the molecule `Nc1cc(C(F)(F)F)c2nc1-c1nnc(o1)C(O)(C(F)(F)F)CCCCCN(C(=O)C1CCC1)C2` (single isomer, unassigned) [Compound 23, [17-amino-6-hydroxy-6,15-bis(trifluoromethyl)-19-oxa-3,4,12,18-tetrazatricyclo[12.3.1.12,5]nonadeca-1(18),2,4,14,16-pentaen-12-yl]-cyclobutyl-methanone], the EC50 is greater than 1000 nM.

Consider `Nc1cc(C(F)(F)F)c2nc1-c1nnc(o1)C(O)(C(F)(F)F)CCCCCCC2(O)C(F)(F)F` (single isomer, unassigned) [Compound 25, 17-amino-6,13,15-tris(trifluoromethyl)-19-oxa-3,4,18-triazatricyclo[12.3.1.12,5]nonadeca-1(18),2,4,14,16-pentaene-6,13-diol], for which the EC50 is greater than 1000 nM.

For `Nc1cc(C(F)(F)F)c2nc1-c1nnc(o1)C(O)(C(F)(F)F)CCCCCCC2(O)C(F)(F)F` (single isomer, unassigned) [Compound 26, 17-amino-6,13,15-tris(trifluoromethyl)-19-oxa-3,4,18-triazatricyclo[12.3.1.12,5]nonadeca-1(18),2,4,14,16-pentaene-6,13-diol], the EC50 is less than 500 nM.

For `Nc1cc(C(F)(F)F)c2nc1-c1nnc(o1)C(O)(C(F)(F)F)CCCCCCC2(O)C(F)(F)F` (single isomer, unassigned) [Compound 27, 17-amino-6,13,15-tris(trifluoromethyl)-19-oxa-3,4,18-triazatricyclo[12.3.1.12,5]nonadeca-1(18),2,4,14,16-pentaene-6,13-diol], the EC50 is less than 500 nM.

As to `Nc1cc(C(F)(F)F)c2nc1-c1nnc(o1)C(O)(C(F)(F)F)CCCCCCC2(O)C(F)(F)F` (single isomer, unassigned) [Compound 28, 17-amino-6,13,15-tris(trifluoromethyl)-19-oxa-3,4,18-triazatricyclo[12.3.1.12,5]nonadeca-1(18),2,4,14,16-pentaene-6,13-diol], the EC50 was greater than 1000 nM.

Turning to `CC(C)(C)ON=C1CCCCCC[C@](O)(C(F)(F)F)C2=NN=C(O2)c2nc1c(C(F)(F)F)cc2N` (single isomer, unassigned) [Compound 29], the EC50 was less than 500 nM.

Turning to `CC(C)(C)ON=C1CCCCCC[C@](O)(C(F)(F)F)C2=NN=C(O2)c2nc1c(C(F)(F)F)cc2N` (single isomer, unassigned) [Compound 30], the 50% effective concentration (EC50) is less than 500 nM.

Source of the values: patent US20250122218A1, “MODULATORS OF CYSTIC FIBROSIS TRANSMEMBRANE CONDUCTANCE REGULATOR” (Vertex Pharmaceuticals Incorporated, priority 2022, published 2025).
